Data on one substance can be found in patent US20160000750A1, “COMBINATION OF EGCG OR METHYLATED EGCG AND A PDE INHIBITOR” (KYUSHU UNIVERSITY, NATIONAL UNIVERSITY CORPORATION, priority 2010, published 2016).

In test [1] the test system is human multiple myeloma cell line, U266. Description: Involvement of 67LR (anti-67LR antibody MLuc5) in cell-killing and cytostatic activity, U266. The format is cell-based. The following applies: U266, 96-well; vardenafil 5 μM, EGCG 5 μM; 96 hours; without anti-67LR antibody (isotype control mouse IgM). The procedure:
(§1) A trypan blue staining solution was prepared by suspending trypan blue in PBS at a concentration of 1% and was used in investigation of the anti-cancer activity of a combination of EGCG and vardenafil by trypan blue assay. The PBS used was prepared by dissolving 8.0 g of NaCl, 0.2 g of KCl, 1.15 g of Na2HPO4, and 0.2 g of KH2PO4 in 1 L of ultrapure water, followed by autoclave sterilization.
(§2) A human multiple myeloma cell line, U266, and a human acute myeloid leukemia cell line, HL60, adjusted to be 5×10^4 cells/mL (U266) and 1×10^4 cells/mL (HL60), respectively, in an RPMI 1640 medium supplemented with 1% FCS were seeded in a 96-well plate (Falcon Co., Ltd.). Vardenafil was added thereto at a final concentration of 5 μM. Immediately after the addition, an anti-67LR monoclonal antibody, MLuc5 (Abcam PLC), was added thereto at a final concentration of 20 μg/mL. In the group of adding an isotype control antibody, mouse IgM (Cosmo Bio Co., Ltd., Tokyo) was added at a final concentration of 20 μg/mL. […]
(§3) The plate was returned to the incubator immediately after the addition of EGCG, followed by culturing for 96 hours. […] After 10 minutes, the number of the cells was counted with a hemocytometer. Unstained cells were deemed as viable cells, and the cell viability was determined as a ratio of the number of unstained cells in trypan blue staining to the total number of cells. […]

Test [2] deals with human acute myeloid leukemia cell line, HL60. Description: Involvement of 67LR (anti-67LR antibody MLuc5) in cell-killing and cytostatic activity, HL60. The test is classed as cell-based. As to conditions: HL60, 96-well; vardenafil 5 μM, EGCG 5 μM; 96 hours; without anti-67LR antibody (isotype control mouse IgM). As for the experimental part: as §1, §2, §3
For test [3], the system named is mouse plasmacytoma cell line, MPC11, transplanted to Balb/c mice. Briefly: Tumor formation of MPC11 transplanted to Balb/c mice. The test is classed as in vivo. The following applies: MPC11 s.c., EGCG 15 mg/kg i.p., vardenafil 5 mg/kg i.p., once every two days from day 4. The procedure:
Furthermore, 5-week old female balb/c mice were preliminarily bred for one week and were then inoculated with a mouse multiple myeloma cell line, MPC11, by subcutaneous injection, in the right back, of […] of a suspension of 5×10^7 cells/mL of the cells in an RPMI medium. After 4 days from the inoculation, EGCG (15 mg/kg i.p.) and vardenafil (5 mg/kg i.p.) were administered once every two days, and the tumor volume was measured with varnier clipers. In the graph, EGCG and VDN indicate single administration of EGCG and vardenafil, respectively, and EGCG/Vardenafil indicates combination administration of EGCG and vardenafil.

As to (−)-epigallocatechin-3-O-gallate [EGCG], the “cell viability (cell-killing activity)” value in test [1] and in test [2] was “any cytotoxicity was not observed” throughout. Further, the “tumor formation (tumor volume)” value in test [3] is given as “any inhibitory action on tumor formation of the mouse plasmacytoma cell line was not observed”.
